Laboratory results from patent publication US11912794B2, “Modulation of structured polypeptide specificity” (BicycleRD Limited, priority 2011, dated 2024).
Numbered stars: 1 amine (or outer) side, 2 acyl side, 3 side chain; on linkers, the order of the positions; unused ones are H or OH. Bridge positions count the residues as written; N and C are the ends. Square brackets hold non-standard residues; d marks the D form. Peptide text beside a SMILES is read from it. Phe(4-guanidino) = N=C(N)Nc1ccc(C[C@H](N)C(=O)O)cc1; TBMB = c1c(C[*:1])cc(C[*:3])cc1C[*:2]; NMeR = CN[C@@H](CCCNC(=N)N)C(=O)O; hArg = N=C(N)NCCCC[C@H](N)C(=O)O

Legend:
[1] = target: Monkey plasma Kallikrein (mPK) (Macaca mulatta, UniProt A0A1D5Q7U7); test: Target specificity, Ki for orthologous protease; type: biochemical
Monkey plasma Kallikrein (mPK), sequence (A0A1D5Q7U7 391-638): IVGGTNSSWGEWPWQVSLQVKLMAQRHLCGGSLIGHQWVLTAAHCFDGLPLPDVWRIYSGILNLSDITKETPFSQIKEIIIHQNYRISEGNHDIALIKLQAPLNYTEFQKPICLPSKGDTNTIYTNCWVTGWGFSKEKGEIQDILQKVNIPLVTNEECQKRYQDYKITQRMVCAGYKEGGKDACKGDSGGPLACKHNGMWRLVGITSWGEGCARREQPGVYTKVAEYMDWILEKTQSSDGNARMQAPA

[2] = target: T1, rat plasma Kallikrein (Rattus norvegicus, UniProt P14272); details: highest concentration tested (10 μM); Heinis et al. 2009; cited from earlier work
T1 construct: polyhistidine tag with proTEV cleavage site (pro-peptide) (N, cleaved yes); made in house; host or cells: HEK-293 (suspension-adapted)
T1 sequence (P14272 391-638 limits assumed): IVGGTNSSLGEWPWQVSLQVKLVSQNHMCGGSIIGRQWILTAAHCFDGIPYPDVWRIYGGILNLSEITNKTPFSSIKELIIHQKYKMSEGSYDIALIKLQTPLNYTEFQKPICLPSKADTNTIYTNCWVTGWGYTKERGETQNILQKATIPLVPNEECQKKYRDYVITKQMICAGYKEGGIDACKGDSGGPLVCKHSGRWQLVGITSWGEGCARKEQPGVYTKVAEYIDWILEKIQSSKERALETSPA

[3] = target: Human factor XIa (hfXIa) (Homo sapiens, UniProt P03951); details: highest concentration tested (10 μM); Heinis et al. 2009; cited from earlier work
Human factor XIa (hfXIa), sequence (P03951 388-625 limits assumed): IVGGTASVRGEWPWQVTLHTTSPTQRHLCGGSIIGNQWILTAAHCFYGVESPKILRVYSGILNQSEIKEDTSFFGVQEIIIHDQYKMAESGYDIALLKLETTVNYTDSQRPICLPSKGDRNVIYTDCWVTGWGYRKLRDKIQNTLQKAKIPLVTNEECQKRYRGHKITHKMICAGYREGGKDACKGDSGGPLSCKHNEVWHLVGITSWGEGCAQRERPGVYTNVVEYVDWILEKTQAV
Human factor XIa (hfXIa), sequence (P03951 19-387 partner limits assumed): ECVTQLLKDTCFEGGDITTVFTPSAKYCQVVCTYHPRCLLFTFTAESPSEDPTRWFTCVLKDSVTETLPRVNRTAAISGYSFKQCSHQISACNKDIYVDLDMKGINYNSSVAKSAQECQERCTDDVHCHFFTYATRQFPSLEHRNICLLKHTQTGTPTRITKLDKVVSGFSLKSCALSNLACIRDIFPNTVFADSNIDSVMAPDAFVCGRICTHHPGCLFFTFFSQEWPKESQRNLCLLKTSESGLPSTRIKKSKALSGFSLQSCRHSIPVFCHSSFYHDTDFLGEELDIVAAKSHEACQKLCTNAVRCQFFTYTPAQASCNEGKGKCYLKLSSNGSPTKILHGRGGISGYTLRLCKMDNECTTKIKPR

[4] = target: T2, human plasma Kallikrein (Homo sapiens, UniProt P03952); test: Functional enzyme inhibition assay, fluorogenic substrate Z-PheArg-AMC; type: biochemical
T2 construct: purchased Stratech, UK
T2 sequence (P03952 20-638): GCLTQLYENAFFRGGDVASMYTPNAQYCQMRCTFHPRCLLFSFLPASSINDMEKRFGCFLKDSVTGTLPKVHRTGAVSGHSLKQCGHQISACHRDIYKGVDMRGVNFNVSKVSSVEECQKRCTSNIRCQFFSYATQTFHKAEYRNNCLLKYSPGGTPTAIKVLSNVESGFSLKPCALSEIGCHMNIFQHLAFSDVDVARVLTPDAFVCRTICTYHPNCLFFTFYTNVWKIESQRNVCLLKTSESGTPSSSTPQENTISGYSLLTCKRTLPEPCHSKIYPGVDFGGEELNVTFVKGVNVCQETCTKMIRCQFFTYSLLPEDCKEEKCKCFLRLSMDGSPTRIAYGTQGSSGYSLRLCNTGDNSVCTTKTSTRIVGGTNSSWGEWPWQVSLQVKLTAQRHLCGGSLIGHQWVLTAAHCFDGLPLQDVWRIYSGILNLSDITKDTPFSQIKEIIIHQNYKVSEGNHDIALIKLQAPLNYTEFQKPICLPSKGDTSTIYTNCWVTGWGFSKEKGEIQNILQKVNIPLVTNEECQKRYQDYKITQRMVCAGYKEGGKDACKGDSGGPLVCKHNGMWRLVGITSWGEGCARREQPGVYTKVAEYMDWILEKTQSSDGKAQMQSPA
Procedure: Peptides were dissolved as the TFA-salts in their powder form, and stock solutions were usually prepared in water. All solutions were centrifuged and filtered ([…] syringe filters) prior absorption measurement at 280 nm. […] For peptides containing non-natural amino acids with suspected chromophoric properties (i.e. NorHar, 4PhenylPro, 3PaI, 4PaI, Tic, 4GuanPhe, 4,4-BPAI, 3,3-DPA, 1NAI, 2NAI, 4BenzylPro, Ind) concentrations were determined by weighing the powder and dissolving the peptide in a defined quantity of water.

[5] = target: Human thrombin (Homo sapiens, UniProt P00734); details: highest concentration tested (10 μM); Heinis et al. 2009; cited from earlier work
[6] = Plasma stability method 3 (95% plasma, quantitative LC/MS, Biofocus); type: in vitro ADME, rat
Procedure: To obtain plasma stability quantitatively, peptide stock solutions (1 mM in DMSO) were shipped to Biofocus, UK, who performed the analysis. Peptides were diluted to 100 uM with water, and diluted 1:20 in plasma (5 uM final concentration, with the plasma at 95%), sampled as appropriate, precipitated as above, and quantified using a Waters Xevo TQ-MS.

[7] = Plasma stability profiling method 1 (35% plasma, MALDI-TOF, qualitative); type: in vitro ADME, rat; details: 35% rat plasma, 37 deg C, method 1, comparative estimate
How it was run: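 Peptide at 200 uM incubated at 37 deg C in 35% rat or human citrated plasma with 1×PBS, sampled at 0, 3, 24 h then daily up to 10 days. Parent mass tracked by MALDI-TOF at similar laser intensity; value is time until parent no longer detectable, qualitative only.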

[8] = target: T1, rat plasma Kallikrein; test: Functional enzyme inhibition assay, fluorogenic substrate Z-PheArg-AMC; type: biochemical
[9] = Ki (nM) (human kallikrein), Ac-06-34-18(TMB)-NH2 series

Row | SMILES | Ki [1] [nM] | t1/2 (hrs) in rat plasma ([6]; rat, plasma, 5 uM) [h] | Observable in rat plasma, for days [7] [days] | Ki [4, 9] [nM] | other results
1 | CC(C)C[C@@H]1NC(=O)[C@H](C)NC(=O)[C@H](CCC(=O)O)NC(=O)[C@H](CC(=O)O)NC(=O)[C@H](C)NC(=O)[C@@H]2CCCN2C(=O)[C@@H]2CSCc3cc(cc(c3)CSC[C@@H](C(=O)NCC(N)=O)NC1=O)CSC[C@H](NC(=O)[C@H](C)N)C(=O)N[C@@H](CO)C(=O)N[C@@H](CC(=O)O)C(=O)N[C@@H](CCCNC(=N)N)C(=O)N[C@@H](Cc1ccccc1)C(=O)N[C@@H](CCCNC(=N)N)C(=O)N[C@@H](CC(N)=O)C(=O)N2 [PK15] (H-ACSDRFRNCPADEALCG-NH2; linker 2-9-16 via TBMB) | 4 | – | – | – | inhibition of rat PK [2]: did not inhibit; inhibition of human factor XIa (hfXIa) [3]: did not inhibit; Ki ([4]; Ki Human plasma kalikrein (hPK), Table 1, means of at least two measurements): 3 nM; inhibition of thrombin [5]: did not inhibit
2 | CC(=O)N[C@H]1CSCc2cc3cc(c2)CSC[C@H](NC(=O)[C@H](Cc2ccc(NC(=N)N)cc2)NC(=O)[C@H](Cc2ccc(O)cc2)NC(=O)[C@@H]2CCCN2C(=O)[C@H](Cc2ccccc2)NC(=O)[C@H](CO)NC1=O)C(=O)N[C@@H](CC(C)C)C(=O)N[C@@H](Cc1c[nH]cn1)C(=O)N[C@@H](CCC(N)=O)C(=O)N[C@@H](CC(=O)O)C(=O)N[C@@H](CC(C)C)C(=O)N[C@H](C(N)=O)CSC3 [Ac-(06-34-18) Phe2 Tyr4 4GuanPhe5] (Ac-CSFPY[Phe(4-guanidino)]CLHQDLC-NH2; linker 1-7-13 via TBMB) | – | 5.0 | >10 | 0.4 | –
3 | CC(C)C[C@@H]1NC(=O)[C@H](CC(=O)O)NC(=O)[C@H](CCC(N)=O)NC(=O)[C@H](Cc2c[nH]cn2)NC(=O)[C@H](CC(C)C)NC(=O)[C@@H]2CSCc3cc(cc(c3)CSC[C@@H](C(=O)N[C@@H](C)C(N)=O)NC1=O)CSC[C@H](NC(=O)[C@H](C)N)C(=O)N[C@@H](CO)C(=O)N[C@@H](Cc1c[nH]c3ccccc13)C(=O)N1CCC[C@H]1C(=O)N[C@@H](C)C(=O)N[C@@H](CCCNC(=N)N)C(=O)N2 [Peptide 06-34-18] (H-ACSWPARCLHQDLCA-NH2; linker 2-8-14 via TBMB) | – | – | – | – | IC50 [8]: 0.56 nM; IC50 [4]: 0.07 nM
4 | CC(=O)N[C@H]1CSCc2cc3cc(c2)CSC[C@H](NC(=O)[C@H](CCCNC(=N)N)NC(=O)[C@H](C)NC(=O)[C@@H]2CCCN2C(=O)[C@H](Cc2c[nH]c4ccccc24)NC(=O)[C@H](CO)NC1=O)C(=O)N[C@@H](CC(C)C)C(=O)N[C@@H](Cc1c[nH]cn1)C(=O)N[C@@H](CCC(N)=O)C(=O)N[C@@H](CC(=O)O)C(=O)N[C@@H](CC(C)C)C(=O)N[C@H](C(N)=O)CSC3 [Ac-(06-34-18) wildtype] | – | – | – | – | t1/2 (hrs) in rat plasma ([6]; method 3, quantitative, listed as Ac-06-34-18(TMB)-NH2): about 2 hrs; Observable in rat plasma, for days ([7]; listed as Ac-06-34-18(TMB)-NH2): about 2 days
5 | CSCC[C@@H]1NC(=O)[C@@H]2CSCc3cc(cc(c3)CSC[C@@H](C(=O)N[C@@H](C)C(N)=O)NC(=O)[C@H](CC(C)C)NC(=O)[C@H](CC(=O)O)NC(=O)[C@H](CCC(N)=O)NC(=O)[C@H](Cc3c[nH]cn3)NC1=O)CSC[C@H](NC(=O)[C@H](C)N)C(=O)N[C@@H](CCCNC(=N)N)C(=O)N[C@@H](Cc1c[nH]c3ccccc13)C(=O)N1CCC[C@H]1C(=O)N[C@@H](C)C(=O)N[C@@H](CCCNC(=N)N)C(=O)N2 [Peptide 06-34-04] (H-ACRWPARCMHQDLCA-NH2; linker 2-8-14 via TBMB; N-terminus and C-terminus assumed) | – | – | – | – | IC50 [8]: 0.56 nM
6 | CC(=O)N[C@H]1CSCc2cc3cc(c2)CSC[C@H](NC(=O)[C@H](CCCCNC(=N)N)NC(=O)[C@H](Cc2ccc(O)cc2)NC(=O)[C@@H]2CCCN2C(=O)[C@H](Cc2ccccc2)NC(=O)[C@H](CO)NC1=O)C(=O)N[C@@H](CC(C)C)C(=O)N[C@@H](Cc1c[nH]cn1)C(=O)N[C@@H](CCC(N)=O)C(=O)N[C@@H](CC(=O)O)C(=O)N[C@@H](CC(C)C)C(=O)N[C@H](C(N)=O)CSC3 [Ac-(06-34-18) Phe2 Tyr4 HomoArg5] (Ac-CSFPY[hArg]CLHQDLC-NH2; linker 1-7-13 via TBMB) | – | 12.2 | >10 | – | rat plasma stability enhanced by a factor ([6]; vs parent Phe2Tyr4 peptide): 13
7 | CC(C)[C@@H]1NC(=O)[C@H](CCCNC(=N)N)NC(=O)[C@@H]2CSCc3cc(cc(c3)CSC[C@@H](C(=O)N[C@@H](C)C(N)=O)NC(=O)[C@H](CC(N)=O)NC1=O)CSC[C@H](NC(=O)[C@H](C)N)C(=O)N[C@@H](Cc1ccccc1)C(=O)N[C@@H](CCCCN)C(=O)N[C@@H](C)C(=O)N2 [Peptide 3B3] | 11 | – | – | – | –
8 | C[C@H](N)C(=O)N[C@H]1CSCc2cc3cc(c2)CSC[C@H](NC(=O)[C@H](CCCNC(=N)N)NC(=O)[C@H](C)NC(=O)[C@@H]2CCCN2C(=O)[C@H](Cc2c[nH]c4ccccc24)NC(=O)[C@H](CCCNC(=N)N)NC1=O)C(=O)N[C@@H]([C@@H](C)O)C(=O)N[C@@H](Cc1c[nH]cn1)C(=O)N[C@@H](CCC(N)=O)C(=O)N[C@@H](CC(N)=O)C(=O)N[C@@H](Cc1ccc(O)cc1)C(=O)N[C@H](C(=O)N[C@@H](C)C(N)=O)CSC3 [Peptide 06-54] (H-ACRWPARCTHQNYCA-NH2; linker 2-8-14 via TBMB; N-terminus and C-terminus assumed) | 6 | – | – | – | –
9 | CC(=O)N[C@H]1CSCc2cc3cc(c2)CSC[C@H](NC(=O)[C@H](CCCNC(=N)N)N(C)C(=O)[C@H](Cc2ccc(O)cc2)NC(=O)[C@@H]2CCCN2C(=O)[C@H](Cc2ccccc2)NC(=O)[C@H](CO)NC1=O)C(=O)N[C@@H](CC(C)C)C(=O)N[C@@H](Cc1c[nH]cn1)C(=O)N[C@@H](CCC(N)=O)C(=O)N[C@@H](CC(=O)O)C(=O)N[C@@H](CC(C)C)C(=O)N[C@H](C(N)=O)CSC3 [Ac-(06-34-18) Phe2 Tyr4 NMeArg5] (Ac-CSFPY[NMeR]CLHQDLC-NH2; linker 1-7-13 via TBMB) | – | >20 | >10 | 3.56 | –
10 | CC(=O)N[C@H]1CSCc2cc3cc(c2)CSC[C@H](NC(=O)[C@H](CCCNC(=N)N)NC(=O)[C@H](Cc2ccc(O)cc2)NC(=O)[C@@H]2CCCN2C(=O)[C@H](Cc2ccccc2)NC(=O)[C@H](CO)NC1=O)C(=O)N[C@@H](CC(C)C)C(=O)N[C@@H](Cc1c[nH]cn1)C(=O)N[C@@H](CCC(N)=O)C(=O)N[C@@H](CC(=O)O)C(=O)N[C@@H](CC(C)C)C(=O)N[C@H](C(N)=O)CSC3 [Ac-(06-34-18) FPYR] (Ac-CSFPYRCLHQDLC-NH2; linker 1-7-13 via TBMB) | – | 0.9 | 2 | 0.46 | –
